Experimental data: PMC9718554, “Discovery of a fragment hit compound targeting D-Ala:D-Ala ligase of bacterial peptidoglycan biosynthesis” (Journal of Enzyme Inhibition and Medicinal Chemistry, 2022)
Where two headings read alike, the source gives them in different places. Blank lines part the entries; values can stand above or below the molecule they belong to.

Legend:
[1] = Solubility at tested concentrations in the fragment library screening; type: physicochemical
Description: (§1) Supplement IENZ_A_2149745_SM2502.zip/DDlB_CDR05_SI_20221103.xlsx, sheet "Fragment library screening" | column: Solubility at tested concentrations

[2] = target: T1, E. coli DdlB enzyme (D-alanine:D-alanine ligase) (Escherichia coli, UniProt P07862); test: biochemical; details: read-out: DdlB RA; for remaining activity at 1800 µM: tested concentration 1.8 mM; for remaining activity at 2000 µM: tested concentration 2.0 mM; for remaining activity at 1700 µM: tested concentration 1.7 mM; for remaining activity at 2100 µM: tested concentration 2.1 mM; for remaining activity at 1900 µM: tested concentration 1.9 mM
T1 construct: made in house; host or cells: E. coli

[3] = Solubility at tested concentrations in fragment library screening; type: physicochemical
Description: as §1

[4] = at the Tested concentration [mM]

Solubility at tested concentrations [1, 4]: not soluble
Structure (SMILES): Cc1cc(C)c2ccc(/C=N/O)nc2c1O [Compound 0422-0035]

Structure (SMILES): O=C1CSC(c2ccccc2)N1CCc1ccccc1 (stereo not shown) [Compound 1410-0151]
remaining activity at 1800 µM [2]: 134% | Solubility at tested concentrations ([1]; tested concentration 1.8 mM): not soluble

Structure (SMILES): O=C1CSC(c2ccccc2)N1c1ccccc1 (stereo not shown) [Compound 2339-2195]
remaining activity at 2000 µM [2]: 103% | Solubility at tested concentrations ([1]; tested concentration 2.0 mM): not soluble

Solubility at tested concentrations [1, 4]: not soluble
Structure (SMILES): Cc1cccc2c(O)c(C(=O)O)cnc12 [Compound 4491-1619]

Structure (SMILES): COc1cccc(NC2=NS(=O)(=O)c3ccccc32)c1 [Compound 8005-1580]
remaining activity at 1700 µM ([2]; residual activity): 50% | Solubility at tested concentrations ([3]; tested concentration 1.7 mM): not soluble

Structure (SMILES): CN1CCN(S(=O)(=O)c2cccc3cccnc23)CC1 [Compound 8006-7667]
remaining activity at 2100 µM ([2]; residual activity): 60% | Solubility at tested concentrations ([3]; tested concentration 2.1 mM): not soluble

Structure (SMILES): OC1CCCc2c1[nH]c1ccc(Br)cc21 (stereo not shown) [Compound 8010-6263]
remaining activity at 1900 µM ([2]; residual activity): 29% | Solubility at tested concentrations ([3]; tested concentration 1.9 mM): not soluble

Structure (SMILES): CN(C(=O)c1cc[nH]n1)C1CC(C)(C)N(C)C(C)(C)C1 [Compound 8013-1135]
remaining activity at 2000 µM ([2]; residual activity): -1.26% | Solubility at tested concentrations ([3]; tested concentration 2.0 mM): not soluble

Structure (SMILES): O=C1COc2ccccc2N1Cc1ccc2c(c1)OCO2 [Compound 8018-5756]
remaining activity at 1800 µM ([2]; residual activity): 103% | Solubility at tested concentrations ([3]; tested concentration 1.8 mM): not soluble

Structure (SMILES): COc1ccc(Cc2ccc(F)cc2)cc1B(O)O [Compound 8020-3675]
remaining activity at 1900 µM [2]: 52% | Solubility at tested concentrations ([1]; tested concentration 1.9 mM): not soluble

Solubility at tested concentrations [1, 4]: not soluble
Structure (SMILES): CCc1c(C)[nH]c(=O)c(C(=O)O)c1C#N [Compound 8020-6317]

Structure (SMILES): CCc1cc(C(=O)N2CC3(C)CC2CC(C)(C)C3)no1 (stereo not shown) [Compound C226-2780]
remaining activity at 2200 µM ([2]; residual activity, tested concentration 2.2 mM): 25% | Solubility at tested concentrations ([3]; tested concentration 2.2 mM): not soluble

Structure (SMILES): O=C(O)c1nccnc1C(=O)Nc1ccc([N+](=O)[O-])cc1 [Compound C612-1047]
remaining activity at 1700 µM [2]: 38% | Solubility at tested concentrations ([1]; tested concentration 1.7 mM): not soluble

Structure (SMILES): COC(=O)c1cc2occc2n1Cc1ccccc1Cl [Compound C777-0071]
remaining activity at 1700 µM ([2]; residual activity): 82% | Solubility at tested concentrations ([3]; tested concentration 1.7 mM): not soluble

Solubility at tested concentrations [1, 4]: not soluble
Structure (SMILES): O=S(=O)(c1c[nH]cn1)N1CCCC1c1cccc(F)c1 (stereo not shown) [Compound D399-0575]

Solubility at tested concentrations [1, 4]: not soluble
Structure (SMILES): O=C(O)c1ccc(-c2ccccc2)nc1O [Compound D724-1054]

Solubility at tested concentrations [1, 4]: not soluble
Structure (SMILES): CC1=C(c2cccc(Cl)c2)S(=O)(=O)N=C1NC(C)C [Compound E013-2266]

Structure (SMILES): Cc1ccccc1N(C)C(=O)Cc1noc2ccccc12 [Compound E207-0386]
remaining activity at 2100 µM ([2]; residual activity): 102% | Solubility at tested concentrations ([3]; tested concentration 2.1 mM): not soluble

Structure (SMILES): Cc1ccc(-c2c(N(C)c3ccc(C)cc3)c(=O)c2=O)cc1 [Compound E470-0191]
remaining activity at 1700 µM [2]: 73% | Solubility at tested concentrations ([1]; tested concentration 1.7 mM): not soluble

Structure (SMILES): CC1CCN(c2c(-c3ccccc3)c(=O)c2=O)CC1 [Compound E470-0346]
remaining activity at 2000 µM [2]: 98% | Solubility at tested concentrations ([1]; tested concentration 2.0 mM): not soluble

Structure (SMILES): O=c1c(NCC2CCCO2)c(-c2ccccc2)c1=O (stereo not shown) [Compound E470-0384]
remaining activity at 1900 µM [2]: 81% | Solubility at tested concentrations ([1]; tested concentration 1.9 mM): not soluble

Structure (SMILES): CC1Cc2ccccc2N1c1c(-c2ccccc2)c(=O)c1=O (stereo not shown) [Compound E470-0446]
remaining activity at 1700 µM [2]: 2.16% | Solubility at tested concentrations ([1]; tested concentration 1.7 mM): not soluble

Structure (SMILES): O=c1c(NCc2ccco2)c(-c2ccccc2)c1=O [Compound E470-0461]
remaining activity at 2000 µM [2]: 137% | Solubility at tested concentrations ([1]; tested concentration 2.0 mM): not soluble

Structure (SMILES): Cc1cccc(Nc2c(-c3ccccc3)c(=O)c2=O)c1 [Compound E470-0476]
remaining activity at 1900 µM [2]: 43% | Solubility at tested concentrations ([1]; tested concentration 1.9 mM): not soluble

Structure (SMILES): O=c1c(NCCN2CCCCCC2)c(-c2ccccc2)c1=O [Compound E470-0490]
remaining activity at 1700 µM [2]: 88% | Solubility at tested concentrations ([1]; tested concentration 1.7 mM): not soluble

Structure (SMILES): CCCNc1c(-c2ccc(C(C)C)cc2)c(=O)c1=O [Compound E511-0830]
remaining activity at 1900 µM [2]: 101% | Solubility at tested concentrations ([1]; tested concentration 1.9 mM): not soluble

Structure (SMILES): CCc1ccc(C2Nc3ccccc3S(=O)(=O)N2)cc1 (stereo not shown) [Compound F475-0262]
remaining activity at 2100 µM ([2]; residual activity): 68% | Solubility at tested concentrations ([3]; tested concentration 2.1 mM): not soluble

Structure (SMILES): Cc1cc2nc(COC(=O)c3ccccc3)cc(=O)n2o1 [Compound G265-0746]
remaining activity at 1800 µM [2]: -1% | Solubility at tested concentrations ([1]; tested concentration 1.8 mM): not soluble

Structure (SMILES): CC1c2cccn2CCN1C(=O)Nc1ccccc1Cl (stereo not shown) [Compound G551-0008]
remaining activity at 1700 µM ([2]; residual activity): 112% | Solubility at tested concentrations ([3]; tested concentration 1.7 mM): not soluble
